Data: US20210255193A1, “LYSINE REACTIVE PROBES AND USES THEREOF” (The Scripps Research Institute, priority 2017, published 2021)

Assays:
[1] = target: T1, PFKP 6-phosphofructokinase type C (Homo sapiens, UniProt Q01813); assay: competitive isoTOP-ABPP; type: binding; set-up: key to isoTOP-ABPP reactivity ratio at lysine Q01813_K688: R = MS1 peak area ratio, DMSO (heavy) / compound-treated (light); conditions: for R value (DMSO/fragment) for probe 1 labeling: Q01813_K688; for R value (DMSO/fragment) for probe 1 labeling / isoTOP-ABPP reactivity ratio at lysine Q01813_K688 / isoTOP-ABPP ratio (R) at liganded lysine Q01813_K688: 50 uM, in vitro; for R value (DMSO/fragment) for probe 1 labeling / isoTOP-ABPP reactivity ratio at lysine Q01813_K688: 231 sol; for isoTOP-ABPP ratio (R) at liganded lysine Q01813_K688: sol, 231
T1 construct: isoTOP-ABPP experiments performed in cell lysates (in vitro); endogenous in cells
T1 sequence (Q01813 1-784): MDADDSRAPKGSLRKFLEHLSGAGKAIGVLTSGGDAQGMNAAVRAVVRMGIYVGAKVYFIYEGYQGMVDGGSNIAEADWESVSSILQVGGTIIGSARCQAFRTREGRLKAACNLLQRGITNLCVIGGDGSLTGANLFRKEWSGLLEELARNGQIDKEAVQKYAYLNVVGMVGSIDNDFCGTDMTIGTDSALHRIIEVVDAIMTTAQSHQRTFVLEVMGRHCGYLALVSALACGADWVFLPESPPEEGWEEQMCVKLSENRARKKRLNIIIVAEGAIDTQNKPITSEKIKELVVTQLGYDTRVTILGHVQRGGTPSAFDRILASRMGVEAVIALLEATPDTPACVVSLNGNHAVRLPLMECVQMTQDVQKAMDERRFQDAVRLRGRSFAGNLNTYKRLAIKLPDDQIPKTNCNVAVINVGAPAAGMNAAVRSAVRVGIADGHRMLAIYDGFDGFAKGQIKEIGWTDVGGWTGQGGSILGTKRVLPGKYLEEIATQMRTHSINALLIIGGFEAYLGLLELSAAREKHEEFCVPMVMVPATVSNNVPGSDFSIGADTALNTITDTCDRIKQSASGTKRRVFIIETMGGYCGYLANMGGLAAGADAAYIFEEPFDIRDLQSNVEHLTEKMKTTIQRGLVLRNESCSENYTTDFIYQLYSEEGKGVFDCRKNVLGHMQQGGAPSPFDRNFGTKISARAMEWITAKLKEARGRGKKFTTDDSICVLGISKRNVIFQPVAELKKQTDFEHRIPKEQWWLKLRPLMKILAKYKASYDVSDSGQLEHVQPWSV
Protocol: (§1) In vitro covalent fragment treatment for isoTOP-ABPP. All compounds were made up as solutions in DMSO (100×) and were used at a final concentration of 50 μM for activated esters and 100 μM for guanidinylating agents. For each profiling sample, 0.5 ml of lysate was treated with 5 μl of the 100× compound stock solution or 5 μl of DMSO. Samples were treated with activated esters for
(§2) STP-alkyne labeling and click chemistry. For concentration-dependent reactivity measurements by isoTOP-ABPP, 0.5 ml proteome aliquots were treated at ambient temperature with 1 mM STP-alkyne 1 (5 μl of 100 mM stock in DMSO) and 0.1 mM STP alkyne 1 (5 μl of 10 mM stock in DMSO), respectively. For competitive isoTOP-ABPP, after in vitro fragment treatment (detailed above), the samples were labeled for 1 h at ambient temperature with 0.1 mM STP-alkyne 1 (5 μl of 10 mM stock in DMSO). Samples were conjugated by copper-mediated azide-alkyne cycloaddition (CuAAC) to either the light (1 mM STP-alkyne or fragment treated) or heavy (0.1 mM STP-alkyne or DMSO treated) TEV tags (10 μl of 5 mM stocks in DMSO, final concentration=100 μM) using tris(2-carboxyethyl)phosphine hydrochloride
(§3) R value calculation and processing. The ratios of light and heavy MS1 peaks for each unique peptide were quantified with a CIMAGE software using default parameters (3 MS1 acquisitions per peak and signal to noise threshold set to 2.5). For reactivity measurements by isoTOP-ABPP, the R value was calculated from the ratio of MS1 peak areas, comparing the 1 mM STP alkyne sample (light TEV tag) with the 0.1 mM STP alkyne sample (heavy TEV tag). For competitive isoTOP-ABPP, the R value was calculated from the ratio of MS1 peak areas, comparing the DMSO treated sample (heavy TEV tag) with the compound treated sample (light TEV tag). […] Ratios for unique peptide entries are calculated for each experiment; overlapping peptides with the same modified lysine (for example, different charge states, MudPIT chromatographic steps or tryptic termini) are grouped together and the median ratio is reported as the final ratio (R). The peptide ratios reported by CIMAGE were further filtered to ensure the removal or correction of low-quality ratios in each individual data set. The quality filters applied were the following: removal of half tryptic peptides; for ratios with high standard deviations from the median (90% of the median or above) the lowest ratio was taken instead of the median; removal of peptides with R=20 and only a single MS2 event triggered during the elution of the parent ion; manual annotation of all the peptides with ratios of 20, removing any peptides with low quality elution profiles that remained after the previous curation steps (only done for competitive isoTOP-ABPP).
(§4) Cross-data processing for fragment screening. For compound treated samples, biological replicates of the same condition were averaged, if the standard deviation was below 60% of the mean; otherwise, for lysines with at least one R value <4 for a particular compound, the lowest value of the ratio set was taken. For lysines, where all R values for a particular compound were ≥4, the average was reported. For peptides containing several possible modified lysines, the lysine with the highest number of quantification events was used for analysis and the remaining, redundant peptides were reported as alternative modification sites. Peptides included in the aggregate dataset (those used for further bioinformatics and statistical analyses) were required to have been quantified in 2 experiments for competitive isoTOP-ABPP. Lysines were categorized as liganded, if they had at least one ratio R≥4 (hit fragments). For liganded lysines with R=20 for all liganding events, lysines were required to have been quantified with R=20 in two separate experiments and were further required to have been quantified with R<20 in one additional experiment.

[2] = target: T2, ACBD3 Golgi resident protein GCP60 (Homo sapiens, UniProt Q9H3P7); assay: competitive isoTOP-ABPP; type: binding; set-up: key to isoTOP-ABPP reactivity ratio at lysine Q9H3P7_K117: R = MS1 peak area ratio, DMSO (heavy) / compound-treated (light); conditions: 50 uM, in vitro; for R value (DMSO/fragment) for probe 1 labeling: Q9H3P7_K117; for R value (DMSO/fragment) for probe 1 labeling / isoTOP-ABPP reactivity ratio at lysine Q9H3P7_K117: 231 sol; for isoTOP-ABPP ratio (R) at liganded lysine Q9H3P7_K117: sol, 231
T2 construct: isoTOP-ABPP experiments performed in cell lysates (in vitro); endogenous in cells; host or cells: soluble proteome of human cancer cell lines (MDA-MB-231; Ramos and Jurkat also prepared)
T2 sequence (Q9H3P7 1-528): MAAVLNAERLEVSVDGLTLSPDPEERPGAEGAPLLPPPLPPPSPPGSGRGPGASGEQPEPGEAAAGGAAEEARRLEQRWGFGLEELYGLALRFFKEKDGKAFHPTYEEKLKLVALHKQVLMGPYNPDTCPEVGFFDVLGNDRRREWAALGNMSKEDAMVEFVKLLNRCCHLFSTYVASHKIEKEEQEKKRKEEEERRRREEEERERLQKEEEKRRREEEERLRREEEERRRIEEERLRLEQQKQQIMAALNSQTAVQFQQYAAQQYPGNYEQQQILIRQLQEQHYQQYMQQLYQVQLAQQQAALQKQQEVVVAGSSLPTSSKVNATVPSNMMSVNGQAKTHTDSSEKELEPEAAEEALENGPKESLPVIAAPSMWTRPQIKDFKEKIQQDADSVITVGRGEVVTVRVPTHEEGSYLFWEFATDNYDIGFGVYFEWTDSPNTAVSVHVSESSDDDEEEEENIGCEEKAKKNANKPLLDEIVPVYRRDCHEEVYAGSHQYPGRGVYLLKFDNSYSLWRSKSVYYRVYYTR
Protocol: as §1, §2, §3, §4

Compound | isoTOP-ABPP reactivity ratio at lysine Q01813_K688 [1] | isoTOP-ABPP reactivity ratio at lysine Q9H3P7_K117 [2] | also measured
O=C(CCc1cn(-c2ccccc2)nc1-c1ccccc1)Oc1c(F)c(F)c(F)c(F)c1F [fragment 19, Pentafluorophenyl 3-(1,3-diphenyl-1H-pyrazol-4-yl)propanoate] |  |  | R value (DMSO/fragment) for probe 1 labeling [1]: 1.5; R value (DMSO/fragment) for probe 1 labeling [2]: 1.0
O=C(Oc1c(F)c(F)c(F)c(F)c1F)C(c1ccccc1)c1ccccc1 [fragment 20, Pentafluorophenyl 2,2-diphenylacetate] |  |  | blockade of probe 1 labeling of K688 ([1]; PFKP K688): completely blocked; R value (DMSO/fragment) for probe 1 labeling [1]: 20.0; R value (DMSO/fragment) for probe 1 labeling [2]: 1.2
O=C(Oc1c(F)c(F)c(F)c(F)c1F)c1cc(C(F)(F)F)cc(C(F)(F)F)c1 [fragment 21, Pentafluorophenyl 3,5-bis(trifluoromethyl)benzoate] |  |  | R value (DMSO/fragment) for probe 1 labeling [1]: 1.1; R value (DMSO/fragment) for probe 1 labeling [2]: 0.9
Cn1cc(CC(=O)Oc2c(F)c(F)c(F)c(F)c2F)c2ccccc21 [fragment 22, Pentafluorophenyl 2-(1-methyl-1H-indol-3-yl)acetate] |  |  | R value (DMSO/fragment) for probe 1 labeling [1]: 2.0; R value (DMSO/fragment) for probe 1 labeling [2]: 1.2
COc1cc(CCC(=O)Oc2c(F)c(F)c(F)c(F)c2F)cc(OC)c1OC [fragment 23, Pentafluorophenyl 3-(3,4,5-trimethoxyphenyl)propanoate] |  |  | R value (DMSO/fragment) for probe 1 labeling [1]: 2.1; R value (DMSO/fragment) for probe 1 labeling [2]: 1.2
O=C(Oc1c(F)c(F)c(F)c(F)c1F)C1CCN(C(=O)OCc2ccccc2)CC1 [fragment 24, 1-Benzyl 4-(pentafluorophenyl) piperidine-1,4-dicarboxylate] | 2.5 | 1.0 | 
O=C(Oc1c(F)c(F)c(F)c(F)c1F)c1ccc2ccccc2n1 [fragment 25, Pentafluorophenyl quinoline-2-carboxylate] | 15.6 | 1.7 | 
O=C(CCc1coc2cc(F)ccc2c1=O)Oc1c(F)c(F)c(F)c(F)c1F [fragment 26, Pentafluorophenyl 3-(7-fluoro-4-oxo-4H-chromen-3-yl)propanoate] | 6.4 | 1.8 | 
O=C(CN1C(=O)c2ccccc2C1=O)Oc1c(F)c(F)c(F)c(F)c1F [fragment 27, Pentafluorophenyl 2-(1,3-dioxoisoindolin-2-yl)acetate] | 20.0 | 1.9 | 
CCn1cc(C(=O)Oc2c(F)c(F)c(F)c(F)c2F)c(=O)c2ccc(C)nc21 [fragment 28, Pentafluorophenyl 1-ethyl-7-methyl-4-oxo-1,4-dihydro-1,8-naphthyridine-3-carboxylate] | 1.3 | 1.1 | 
O=C(CCc1cn(-c2ccccc2)nc1-c1ccccc1)Oc1ccc([N+](=O)[O-])cc1[N+](=O)[O-] [fragment 29, 2,4-Dinitrophenyl 3-(1,3-diphenyl-1H-pyrazol-4-yl)propanoate] | 12.8 | 1.0 | 
O=C(Oc1ccc([N+](=O)[O-])cc1[N+](=O)[O-])C(c1ccccc1)c1ccccc1 [fragment 30, 2,4-Dinitrophenyl 2,2-diphenylacetate] | 20.0 | 1.7 | 
O=C(Oc1ccc([N+](=O)[O-])cc1[N+](=O)[O-])c1cc(C(F)(F)F)cc(C(F)(F)F)c1 [fragment 31, 2,4-Dinitrophenyl 3,5-bis(trifluoromethyl)benzoate] | 2.3 | 1.1 | 
Cn1cc(CC(=O)Oc2ccc([N+](=O)[O-])cc2[N+](=O)[O-])c2ccccc21 [fragment 32, 2,4-Dinitrophenyl 2-(1-methyl-1H-indol-3-yl)acetate] | 12.6 | 1.3 | 
COc1cc(CCC(=O)Oc2ccc([N+](=O)[O-])cc2[N+](=O)[O-])cc(OC)c1OC [fragment 33, 2,4-Dinitrophenyl 3-(3,4,5-trimethoxyphenyl)propanoate] | 20.0 | 1.1 | 
O=C(Oc1ccc([N+](=O)[O-])cc1[N+](=O)[O-])C1CCN(C(=O)OCc2ccccc2)CC1 [fragment 34, 1-Benzyl 4-(2,4-dinitrophenyl) piperidine-1,4-dicarboxylate] |  |  | isoTOP-ABPP ratio (R) at liganded lysine Q01813_K688 [1]: 1.9; isoTOP-ABPP ratio (R) at liganded lysine Q9H3P7_K117 [2]: 1.1
O=C(Oc1ccc([N+](=O)[O-])cc1[N+](=O)[O-])c1ccc2ccccc2n1 [fragment 35, 2,4-Dinitrophenyl quinoline-2-carboxylate] |  |  | isoTOP-ABPP ratio (R) at liganded lysine Q01813_K688 [1]: 3.3; isoTOP-ABPP ratio (R) at liganded lysine Q9H3P7_K117 [2]: 1.3
O=C(CCc1coc2cc(F)ccc2c1=O)Oc1ccc([N+](=O)[O-])cc1[N+](=O)[O-] [fragment 36, 2,4-Dinitrophenyl 3-(7-fluoro-4-oxo-4H-chromen-3-yl)propanoate] |  |  | isoTOP-ABPP ratio (R) at liganded lysine Q01813_K688 [1]: 20.0; isoTOP-ABPP ratio (R) at liganded lysine Q9H3P7_K117 [2]: 1.4
